These results are taken from PMC9551036, “A selective and orally bioavailable VHL-recruiting PROTAC achieves SMARCA2 degradation in vivo” (Nature Communications, 2022).

Several values for one entry are separate records, joined by “and”; a condition that tells them apart may be missing. Equal values may be shown once.

The subject of the data set is proteome of NCI-H1568 cells. The data set is described as follows: Whole cell unbiased proteomics (TMT) in NCI-H1568 cells. The data set is classed as cell-based, human. The conditions noted are these: for Rel. Int.: TMT reporter intensity relative to DMSO 1; for Rel. Int. / Normalised: replicates 1-3; for average: average of normalised replicates; for log2: log2 fold change vs DMSO; for Normalised: normalised relative intensity. On the procedure: Cells were seeded at 5 × 10^6 cells on a 100 mm plate 24 h before treatment. Cells were treated in triplicate by addition of test compounds at 100 nM. After 4 h, the cells were washed twice with 10 ml cold PBS and lysed in 500 µL of 100 mM TEAB with 5% (w/v) SDS. The lysate was pulse sonicated briefly and then centrifuged at 15,000 × g for 10 min. Samples were quantified using a micro-BCA protein assay kit (Thermo Fisher Scientific). 300 µg of each sample was reduced with DTT, alkalised with iodoacetamide and double-digested with trypsin using the modified S-TRAP mini (ProtiFi) protocol. Peptide quantification was done using Pierce™ Quantitative Fluorometric Peptide Assay and equal amount from each sample was labelled using TMTpro^TM 16plex Label Reagent Set (Thermo Fisher Scientific) as per the manufacturer’s instructions. The samples were then pooled and desalted using a 7 mm, 3 mL C18 SPE cartridge column (Empore, 3 M). The pooled and desalted sample was fractionated using high pH reverse-phase chromatography on an XBridge peptide BEH column (130 Å, 3.5 μm, 2.1 × 150 mm, Waters) on an Ultimate 3000 HPLC system (Thermo Scientific/Dionex). Buffers A (10 mM ammonium formate in water, pH 9) and B (10 mM ammonium formate in 90% acetonitrile, pH 9) were used over a linear gradient of 2% to 100% buffer B over 80 min at a flow rate of 200 μL/min. 80 fractions were collected using a WPS-3000 FC auto-sampler (Thermo Scientific) before concatenation into 20 fractions based on the UV signal of each fraction. All the fractions were dried in a Genevac EZ-2 concentrator and resuspended in 1% formic acid for MS analysis. The fractions were analysed sequentially on a Q Exactive HF Hybrid Quadrupole-Orbitrap Mass Spectrometer (Thermo Scientific) coupled to an Dionex Ultimate 3000 RS (Thermo Scientific). […] The column temperature was 50 °C. The mass spectrometer was operated in data dependent mode with a single MS survey scan from 335 to 1600 m/z followed by 15 sequential m/z dependent MS2 scans. The 15 most intense precursor ions were sequentially fragmented by higher energy collision dissociation (HCD). The MS1 isolation window was set to 0.7 m/z and the resolution set at 120,000. MS2 resolution was set at 60,000. The AGC targets for MS1 and MS2 were set at 3 × 10^6 ions and 1 × 10^5 ions, respectively. The normalised collision energy was set at 32%. The maximum ion injection times for MS1 and MS2 were set at 50 ms and 200 ms, respectively. The mass accuracy was checked before the initiation of sample analysis. The raw MS data files for all 20 fractions were merged and searched against the Uniprot-sprot-Human-Canonical database (FASTA file released in November 2019) by Maxquant software 2.0.3.0 for protein identification and TMT reporter ion quantitation. The Maxquant parameters were set as follows: enzyme used Trypsin/P; maximum number of missed cleavages equal to two; precursor mass tolerance equal to 10 p.p.m.; fragment mass tolerance equal to 20 p.p.m.; variable modifications: oxidation (M), dioxidation (MW), acetyl (N-term), deamidation (NQ), Gln -> pyro-Glu (Q N-term); fixed modifications: carbamidomethyl (C). Peptide and protein data was filtered by applying a 1% false discovery rate followed by exclusion of proteins with less than two unique peptides. Quantified proteins were filtered if the absolute fold-change difference between the three DMSO replicates was ≥1.5.

The mark [1] stands for this setting: protein SIK1 (LOC102724428;SIK1).

As to `Cc1ncsc1-c1ccc(C(CCC(C)CCN2CCC(c3ccc4c(c3)n(C3CCCC3)c3nc(=O)c5c(Br)cccc5n43)CC2)NC(=O)C2CC(O)CN2C(=O)C(NC(=O)C2(F)CC2)C(C)(C)C)cc1` (stereo not drawn) [ACBI2], the “-logP” value was 4.42. Under “protein BRPF1 (P55201)”, the “Rel. Int.” value was 0.86 and 0.73 and 0.58; the average is recorded as 0.72; the log2 was -0.46; the Normalised was 0.74 and 0.73 and 0.70. Also, where the note is “protein ETS1 (P14921)”, the “Rel. Int.” value was 1.29 and 1.11 and 0.95; the average turned out to be 1.13; the log2 is on record as 0.17; the Normalised is 1.12 (2×) and 1.14. Besides, where the note is “protein PBRM1 (Q86U86)”, the “Rel. Int.” value was 0.41 and 0.40 and 0.32; the average is listed as 0.38; the log2 was -1.40; the Normalised is 0.36 and 0.40 and 0.39. Also, under setting [1], the “Rel. Int.” value was 1.44 and 1.21 and 1.03; the average worked out at 1.24; the log2 was 0.30; the Normalised was 1.25 and 1.21 and 1.24. For the same compound, where the note is “protein SMARCA2 (P51531)”, the “Rel. Int.” value was 0.52 and 0.45 and 0.40; the average is 0.46; the log2 is -1.12; the Normalised was 0.45 and 0.46 and 0.48.
Turning to `Cc1ncsc1-c1ccc([C@H](CC[C@H](C)CCN2CCC(c3ccc4c(c3)n(C3CCCC3)c3nc(=O)c5c(Br)cccc5n43)CC2)NC(=O)[C@@H]2C[C@H](O)CN2C(=O)[C@@H](NC(=O)C2(F)CC2)C(C)(C)C)cc1` [compound 12], the “-logP” value is 0.0276. Further, under “protein BRPF1 (P55201)”, the “Rel. Int.” value was 0.90 and 0.91 (2×); the average was 0.99; the log2 was -0.0113; the Normalised was 0.98 (2×) and 1.02. For the same compound, under “protein ETS1 (P14921)”, the “Rel. Int.” value is 0.94 and 0.98 and 0.91; the average is reported as 1.03; the log2 was determined as 0.05; the Normalised is 1.04 and 1.05 and 1.02. For the same compound, under “protein PBRM1 (Q86U86)”, the “Rel. Int.” value is 0.85 and 0.92 and 0.84; the average was 0.95; the log2 is on record as -0.07; the Normalised is 0.93 and 0.98 and 0.94. For the same compound, under setting [1], the “Rel. Int.” value is 0.93 and 0.92 and 0.88; the average is listed as 1.00; the log2 is -0.00277; the Normalised is 1.02 and 0.98 and 0.99. For the same compound, under “protein SMARCA2 (P51531)”, the “Rel. Int.” value is 0.90 and 0.92 and 0.88; the average is reported as 0.99; the log2 is recorded as -0.0184; the Normalised was 0.99 (2×) and 0.98.
